US20090076120A1, “Crystal of Aminopyrrolidine Derivative and Production Method Thereof” (TEIJIN PHARMA LIMITED, priority 2005, published 2009)
“Also recorded” adds a separate entry of the source.

Key:
[1] = Transition of crystal B into crystal A in ethanol/water suspension (HPLC, XRD); format: physicochemical; details: crystal A versus crystal B
Procedure: Five grams of (R)-3-[2-(2-amino-5-trifluoromethoxybenzamido)acetamido]-1-(6-methylindol-3-ylmethyl)pyrrolidine was suspended in 232 mL of ethanol/water (1.22/1), and the suspension was stirred for 3 hours in an oil bath at 20° C. The precipitated crystals were filtered off and dried at 50° C. under reduced pressure. Yield Amount: 4.25 g (yield: 85%)
HPLC pattern and XRD diagram were measured to confirm that the resulting crystal was crystal A of (R)-3-[2-(2-amino-5-trifluoromethoxybenzamido)acetamido]-1-(6-methylindol-3-ylmethyl)pyrrolidine.

[2] = Storage stability comparison in a thermostatic chamber (HPLC purity, XRD crystal form); format: physicochemical; details: for Purity: HPLC
From the text: Crystal A, crystal B and amorphous form of (R)-3-[2-(2-amino-5-trifluoromethoxybenzamido)acetamido]-1(6-methylindol-3-ylmethyl)pyrrolidine in the amount of 1.50 g, 1.50 g and 0.30 g, respectively were each placed in a transparent glass vial. They were simply covered by filter paper and kept in a thermostatic chamber. Samples were serially extracted for HPLC analysis and the appearance was also observed. Transition of crystal form was monitored by XRD analysis at the point of 163 hrs (only for crystals A and B) and 15 days (for all the samples) from the start. The “time” means storage time. The “temperature” is the preset temperature of the thermostatic chamber used for the storage, which was jumped up at 163 hrs from the start.

[3] = storage 163 hrs at 40 °C (temperature then raised 40 to 60 °C)
[4] = storage 192 hrs, 60 °C from 163 hrs
[5] = storage 240 hrs, 60 °C from 163 hrs
[6] = storage 15 days, 60 °C from 163 hrs
[7] = storage time: initial value, 40 °C, glass vial covered by filter paper

For `Cc1ccc2c(CN3CC[C@@H](NC(=O)CNC(=O)c4cc(OC(F)(F)F)ccc4N)C3)c[nH]c2c1` [Crystal A, (R)-3-[2-(2-amino-5-trifluoromethoxybenzamido)acetamido]-1-(6-methylindol-3-ylmethyl)pyrrolidine], the “Relative stability of the two crystal forms” value [1] was “higher than that of crystal B”, the Purity ([2]; storage 24 hrs, 40 °C) was 98.89% and the Purity ([2]; storage 71 hrs, 40 °C) was 98.88%. For the same compound, the Purity ([2]; storage 144 hrs, 40 °C) was 98.80%, the “Crystal form (XRD)” value [2, 3] was “Crystal A” and the Purity [2, 4] was 98.82%. The Purity [2, 5] was 98.82%, the “Crystal form (XRD)” value [2, 6] was “Crystal A” and the Purity [2, 6] was 98.75%. The Purity [2, 7] was 98.79%.
In the case of `Cc1ccc2c(CN3CC[C@@H](NC(=O)CNC(=O)c4cc(OC(F)(F)F)ccc4N)C3)c[nH]c2c1` [Crystal B, (R)-3-[2-(2-amino-5-trifluoromethoxybenzamido)acetamido]-1-(6-methylindol-3-ylmethyl)pyrrolidine], the Purity ([2]; storage 24 hrs, 40 °C) is reported as 99.22%, the Purity ([2]; storage 71 hrs, 40 °C) is reported as 99.31% and the Purity ([2]; storage 144 hrs, 40 °C) is reported as 99.22%. For the same compound, the “Crystal form (XRD)” value [2, 3] was “Crystal B”, the Purity [2, 4] was 99.28% and the Purity [2, 5] was 99.19%. For the same compound, the “Crystal form (XRD)” value [2, 6] was “Crystal B”, the Purity [2, 6] was 99.28% and the Purity [2, 7] was 99.20%.
For `Cc1ccc2c(CN3CC[C@@H](NC(=O)CNC(=O)c4cc(OC(F)(F)F)ccc4N)C3)c[nH]c2c1` [amorphous form, (R)-3-[2-(2-amino-5-trifluoromethoxybenzamido)acetamido]-1-(6-methylindol-3-ylmethyl)pyrrolidine], the “Storage stability (degradation), in words” value ([2]; conclusion from Table 5) was “degradation of amorphous form; also recorded: less storage stability compared to the crystal forms”, the Purity ([2]; storage 24 hrs, 40 °C) was 97.78% and the Purity ([2]; storage 71 hrs, 40 °C) was 97.55%. The Purity ([2]; storage 144 hrs, 40 °C) was 97.25%, the Purity [2, 4] was 95.88% and the Purity [2, 5] was 94.33%. For the same compound, the “Crystal form (XRD)” value [2, 6] was “amorphous”, the Purity [2, 6] was 91.14% and the Purity [2, 7] was 98.03%.
